Laboratory results taken from US20260085067A1, “CYCLIC SULFONAMIDE RIBONUCLEOTIDE REDUCTASE (RNR) INHIBITORS AND USES THEREOF” (Boundless Bio, Inc., priority 2022, published 2026).

Legend:
RNR (RNR1:RNR2 1:1) = target: T1, RNR (RNR1:RNR2 1:1) (Homo sapiens, UniProt P23921); test: RNR enzyme activity, rapid-fire mass spectrometry (RF/MS) assay; format: biochemical; settings: [RNR] 50 nM, 1:1 RNR1:RNR2; CDP 5 μM; ATP 1 mM; 37° C., 45 min; compounds screened up to 50 μM
T1 sequence (P23921 1-792): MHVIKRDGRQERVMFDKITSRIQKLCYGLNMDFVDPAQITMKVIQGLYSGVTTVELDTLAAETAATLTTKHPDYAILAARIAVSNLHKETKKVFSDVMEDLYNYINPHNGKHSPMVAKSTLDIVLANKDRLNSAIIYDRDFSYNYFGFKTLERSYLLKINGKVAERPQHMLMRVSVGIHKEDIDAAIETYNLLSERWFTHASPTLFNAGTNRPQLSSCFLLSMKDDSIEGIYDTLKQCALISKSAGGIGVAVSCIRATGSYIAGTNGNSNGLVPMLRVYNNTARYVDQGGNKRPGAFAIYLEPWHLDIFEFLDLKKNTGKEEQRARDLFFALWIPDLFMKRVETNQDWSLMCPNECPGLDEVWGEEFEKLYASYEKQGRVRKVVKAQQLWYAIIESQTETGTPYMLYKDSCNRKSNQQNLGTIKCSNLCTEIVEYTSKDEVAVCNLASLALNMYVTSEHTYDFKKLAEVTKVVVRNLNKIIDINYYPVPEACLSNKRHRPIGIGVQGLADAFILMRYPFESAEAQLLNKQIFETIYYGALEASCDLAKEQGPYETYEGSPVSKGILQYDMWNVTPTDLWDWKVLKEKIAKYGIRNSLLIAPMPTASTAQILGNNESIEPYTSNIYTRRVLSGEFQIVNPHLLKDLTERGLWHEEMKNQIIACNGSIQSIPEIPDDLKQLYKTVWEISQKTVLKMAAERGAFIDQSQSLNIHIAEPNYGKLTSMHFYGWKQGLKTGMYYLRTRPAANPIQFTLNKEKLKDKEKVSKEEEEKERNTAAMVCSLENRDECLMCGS
Outline: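 Human RNR (50 nM final, RNR1:RNR2 1:1) pre-incubated 15 min at room temperature, then reacted 45 min at 37 °C with 5 μM CDP and 1 mM ATP, no NADPH. Reaction quenched with 6% HCOOH; product quantified by rapid-fire mass spectrometry.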

[1] = test system: pCHK1 (S345) in Colo320 DM cells; test: Alphalisa assay, detection of pCHK1 (S345) in Colo320 DM cells; format: cell-based, human; settings: Homo sapiens, COLO 320DM, compound overnight (approximately 16 hours)
Outline: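 Colo320 DM cells plated overnight, then exposed to compound for about 16 h at 37 °C (DMSO <0.5%). Cells lysed and phospho-CHK1 (S345) quantified by AlphaLisa SureFire with sequential 60 min acceptor and donor incubations at room temperature.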

Compound `Cc1ccc(F)c([C@@H](C)[C@@H](c2n[nH]c(=O)o2)N2CN(CCCO)c3nc(Cl)ccc3S2(=O)=O)c1C` [Example 82, 5-[(1S,2R)-1-[6-chloro-4-(3-hydroxypropyl)-1,1-dioxo-3H-pyrido[2,3-e][1,2,4]thiadiazin-2-yl]-2-(6-fluoro-2,3-dimethyl-phenyl)propyl]-3H-1,3,4-oxadiazol-2-one] has an IC50 (RNR (RNR1:RNR2 1:1)) of less than 20 nM and an IC50 [1] of no more than 1000 nM.

In the case of `Cc1ccc(F)c([C@@H](C)[C@@H](c2n[nH]c(=O)o2)N2CN(CC3COC3)c3cc(Cl)ccc3S2(=O)=O)c1C` [Example 83, 5-((1S,2R)-1-(6-chloro-4-(oxetan-3-ylmethyl)-1,1-dioxido-3,4-dihydro-2H-benzo[e][1,2,4]thiadiazin-2-yl)-2-(6-fluoro-2,3-dimethylphenyl)propyl)-1,3,4-oxadiazol-2 (3H)-one], the IC50 (RNR (RNR1:RNR2 1:1)) is reported as less than 20 nM and the IC50 [1] is reported as no more than 1000 nM.

`Cc1ccc(F)c([C@@H](C)[C@@H](c2n[nH]c(=O)o2)N2CN(CCN3CCOCC3)c3cc(Cl)ccc3S2(=O)=O)c1C` [Example 84, 5-((1S,2R)-1-(6-chloro-4-(2-morpholinoethyl)-1,1-dioxido-3,4-dihydro-2H-benzo[e][1,2,4]thiadiazin-2-yl)-2-(6-fluoro-2,3-dimethylphenyl)propyl)-1,3,4-oxadiazol-2 (3H)-one] showed an IC50 (RNR (RNR1:RNR2 1:1)) of less than 20 nM and an IC50 [1] of no more than 1000 nM.

`Cc1ccc(F)c([C@@H](C)[C@@H](c2n[nH]c(=O)o2)N2CN([C@H]3CCN(C)C3)c3cc(Cl)ccc3S2(=O)=O)c1C` [Example 86, 5-((1S,2R)-1-(6-chloro-4-((S)-1-methylpyrrolidin-3-yl)-1,1-dioxido-3,4-dihydro-2H-benzo[e][1,2,4]thiadiazin-2-yl)-2-(6-fluoro-2,3-dimethylphenyl)propyl)-1,3,4-oxadiazol-2 (3H)-one] gave an IC50 (RNR (RNR1:RNR2 1:1)) of less than 20 nM and an IC50 [1] of 1000 to 5000 nM.

Work on `Cc1ccc(F)c([C@@H](C)[C@@H](c2n[nH]c(=O)o2)N2CN(C3CCOCC3)c3nc(Cl)ccc3S2(=O)=O)c1C` [Example 87, 5-((1S,2R)-1-(6-chloro-1,1-dioxido-4-(tetrahydro-2H-pyran-4-yl)-3,4-dihydro-2H-pyrido[2,3-e][1,2,4]thiadiazin-2-yl)-2-(6-fluoro-2,3-dimethylphenyl)propyl)-1,3,4-oxadiazol-2 (3H)-one] yielded an IC50 (RNR (RNR1:RNR2 1:1)) of less than 20 nM and an IC50 [1] of no more than 1000 nM.

In the case of `Cc1ccc(F)c([C@@H](C)[C@@H](c2n[nH]c(=O)o2)N2CN(CC(F)F)c3cc(Cl)ccc3S2(=O)=O)c1C` [Example 88, 5-((1S,2R)-1-(6-chloro-4-(2,2-difluoroethyl)-1,1-dioxido-3,4-dihydro-2H-benzo[e][1,2,4]thiadiazin-2-yl)-2-(6-fluoro-2,3-dimethylphenyl)propyl)-1,3,4-oxadiazol-2 (3H)-one], the IC50 (RNR (RNR1:RNR2 1:1)) is reported as less than 20 nM and the IC50 [1] is reported as no more than 1000 nM.

Compound `CC(=O)c1cc(Cl)cc2c1S(=O)(=O)N([C@H](c1n[nH]c(=O)o1)[C@H](C)c1c(F)ccc(C)c1C)CN2C1CC1` [Example 95, 5-((1S,2R)-1-(8-acetyl-6-chloro-4-cyclopropyl-1,1-dioxido-3,4-dihydro-2H-benzo[e][1,2,4]thiadiazin-2-yl)-2-(6-fluoro-2,3-dimethylphenyl)propyl)-1,3,4-oxadiazol-2 (3H)-one] has an IC50 (RNR (RNR1:RNR2 1:1)) of less than 20 nM and an IC50 [1] of no more than 1000 nM.

For `Cc1ccc(F)c([C@@H](C)[C@@H](c2n[nH]c(=O)o2)N2CN(C3CN(CC(F)(F)F)C3)c3cc(Cl)ccc3S2(=O)=O)c1C` [Example 96, 5-((1S,2R)-1-(6-chloro-1,1-dioxido-4-(1-(2,2,2-trifluoroethyl)azetidin-3-yl)-3,4-dihydro-2H-benzo[e][1,2,4]thiadiazin-2-yl)-2-(6-fluoro-2,3-dimethylphenyl)propyl)-1,3,4-oxadiazol-2 (3H)-one], the IC50 (RNR (RNR1:RNR2 1:1)) was less than 20 nM and the IC50 [1] was no more than 1000 nM.

`Cc1ccc(F)c([C@@H](C)[C@@H](c2n[nH]c(=O)o2)N2CN([C@@H]3CCOC[C@H]3F)c3cc(Cl)ccc3S2(=O)=O)c1C` [Example 97, 5-((1S,2R)-1-(6-chloro-4-((3S,4R)-3-fluorotetrahydro-2H-pyran-4-yl)-1,1-dioxido-3,4-dihydro-2H-benzo[e][1,2,4]thiadiazin-2-yl)-2-(6-fluoro-2,3-dimethylphenyl)propyl)-1,3,4-oxadiazol-2 (3H)-one] gave an IC50 (RNR (RNR1:RNR2 1:1)) of less than 20 nM and an IC50 [1] of no more than 1000 nM.

Compound `COC(C)(C)CN1CN([C@H](c2n[nH]c(=O)o2)[C@H](C)c2c(F)ccc(C)c2C)S(=O)(=O)c2ccc(Cl)cc21` [Example 98, 5-((1S,2R)-1-(6-chloro-4-(2-methoxy-2-methylpropyl)-1,1-dioxido-3,4-dihydro-2H-benzo[e][1,2,4]thiadiazin-2-yl)-2-(6-fluoro-2,3-dimethylphenyl)propyl)-1,3,4-oxadiazol-2 (3H)-one] has an IC50 (RNR (RNR1:RNR2 1:1)) of less than 20 nM and an IC50 [1] of no more than 1000 nM.

Compound `Cc1ccc(F)c([C@@H](C)[C@@H](c2n[nH]c(=O)o2)N2CN([C@@H]3CCN(CC(F)(F)F)C3)c3cc(Cl)ccc3S2(=O)=O)c1C` [Example 99, 5-((1S,2R)-1-(6-chloro-1,1-dioxido-4-((R)-1-(2,2,2-trifluoroethyl)pyrrolidin-3-yl)-3,4-dihydro-2H-benzo[e][1,2,4]thiadiazin-2-yl)-2-(6-fluoro-2,3-dimethylphenyl)propyl)-1,3,4-oxadiazol-2 (3H)-one] has an IC50 (RNR (RNR1:RNR2 1:1)) of 20 to 100 nM and an IC50 [1] of no more than 1000 nM.

For `Cc1ccc(F)c([C@@H](C)[C@@H](c2n[nH]c(=O)o2)N2CN(C3CC3)c3cc(Cl)cc(C(C)Cl)c3S2(=O)=O)c1C` (stereo partly drawn) [Example 100, 5-((1S,2R)-1-(6-chloro-8-(1-chloroethyl)-4-cyclopropyl-1,1-dioxido-3,4-dihydro-2H-benzo[e][1,2,4]thiadiazin-2-yl)-2-(6-fluoro-2,3-dimethylphenyl)propyl)-1,3,4-oxadiazol-2 (3H)-one], the IC50 (RNR (RNR1:RNR2 1:1)) was 20 to 100 nM and the IC50 [1] was 1000 to 5000 nM.

Compound `Cc1ccc(F)c([C@@H](C)[C@@H](c2n[nH]c(=O)o2)N2CN([C@H]3CCN(CC(F)(F)F)C3)c3cc(Cl)ccc3S2(=O)=O)c1C` [Example 101, 5-((1S,2R)-1-(6-chloro-1,1-dioxido-4-((S)-1-(2,2,2-trifluoroethyl)pyrrolidin-3-yl)-3,4-dihydro-2H-benzo[e][1,2,4]thiadiazin-2-yl)-2-(6-fluoro-2,3-dimethylphenyl)propyl)-1,3,4-oxadiazol-2 (3H)-one] has an IC50 (RNR (RNR1:RNR2 1:1)) of 20 to 100 nM and an IC50 [1] of 1000 to 5000 nM.

`CC(=O)c1cc(Cl)cc2c1S(=O)(=O)N([C@H](c1n[nH]c(=O)o1)[C@H](C)c1c(F)ccc(C)c1C)CO2` [Example 102, 5-((1S,2R)-1-(8-acetyl-6-chloro-1,1-dioxidobenzo[e][1,4,3]oxathiazin-2 (3H)-yl)-2-(6-fluoro-2,3-dimethylphenyl)propyl)-1,3,4-oxadiazol-2 (3H)-one] showed an IC50 (RNR (RNR1:RNR2 1:1)) of less than 20 nM and an IC50 [1] of no more than 1000 nM.

For `CC(=O)c1cc(Cl)cc2c1S(=O)(=O)N([C@H](c1n[nH]c(=O)o1)[C@@H](C)c1c(F)ccc(C)c1C)CO2` [Example 103, 5-((1S,2S)-1-(8-acetyl-6-chloro-1,1-dioxidobenzo[e][1,4,3]oxathiazin-2 (3H)-yl)-2-(6-fluoro-2,3-dimethylphenyl)propyl)-1,3,4-oxadiazol-2 (3H)-one], the IC50 (RNR (RNR1:RNR2 1:1)) was 1000 to 10000 nM and the IC50 [1] was 5000 to 10000 nM.

With `Cc1ccc(F)c([C@@H](C)[C@@H](c2n[nH]c(=O)o2)N2CN([C@@H]3CCN(CCF)C3)c3cc(Cl)ccc3S2(=O)=O)c1C` [Example 104, 5-((1S,2R)-1-(6-chloro-4-((R)-1-(2-fluoroethyl)pyrrolidin-3-yl)-1,1-dioxido-3,4-dihydro-2H-benzo[e][1,2,4]thiadiazin-2-yl)-2-(6-fluoro-2,3-dimethylphenyl)propyl)-1,3,4-oxadiazol-2 (3H)-one] the IC50 (RNR (RNR1:RNR2 1:1)) was less than 20 nM and the IC50 [1] was no more than 1000 nM.
